Experimental data taken from patent publication US20130142883A1, “MEDICAL FOOD FOR THE DIETARY MANAGEMENT OF DEPRESSION AND ANXIETY AND METHODS THEREOF” (priority 2011, published 2013).

How the values were obtained:
[1] = system: C57BI/6J mice; assay: Sucrose preference test (anhedonia) under chronic stress; assay type: in vivo; details: young adult male mice; water one week before and during ten days of chronic stress; 10th day; Citalopram 15 mg/kg per day per os; mean±SEM
Method: Citalopram 15 mg/kg per day per os was used as the reference antidepressant drug. There was no difference between groups at baseline. At 10th day of the stress procedure, animals were tested on the sucrose preference, common test for assessment of anhedonia. Results are presented in Table 6 as mean±SEM percent of sucrose preference.

[2] = system: C57BI/6 mice; assay: Dark-light box test after 14 days of drinking water; assay type: in vivo; details: three-months-old male mice; water ad libitum 14 days; Diazepam 2.5 mg/kg bolus 30 min prior the test; mean±SEM
Method: Bolus injection of anxiolytic drug Diazepam (2.5 mg/kg, 30 min prior the test) was used as a positive reference control.

Compound | Sucrose preference [1] [%] | Time (time spent in the lit box) [2] [s]
CN(C)CCCC1(c2ccc(F)cc2)OCc2cc(C#N)ccc21 (centres unmarked) [Citalopram] | 70.0 ± 3.0 | –
CN1C(=O)CN=C(c2ccccc2)c2cc(Cl)ccc21 [Diazepam] | – | 155.2 ± 7.8
